The subject of the assay is P388 leukemia ip, CD2F1 mice, survival T/C. Description: NCI In Vivo Anticancer Drug Screen. Data for tumor model P388 Leukemia (intraperitoneal) in CD2F1 (CDF1) mice. To be noted: endpoint: median survival time, higher = longer survival. The procedure, abridged: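 Mice carrying the transplanted tumor received test compound or vehicle. Survival was recorded in each group, and the value is the treated-group measurement divided by that of the vehicle-treated control group.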

The mark [1] stands for this setting: dose: 50.0 mg/kg/injection, schedule: Q01DX009 (ip), vehicle: Klucel (hydroxypropylcellulose) (HPC).
[2] abbreviates: dose: 100.0 mg/kg/injection, schedule: Q01DX009 (ip), vehicle: Klucel (hydroxypropylcellulose) (HPC).
Where [3] appears, read: dose: 50.0 mg/kg/injection, schedule: Q01DX009 (ip), vehicle: saline.
The mark [4] stands for this setting: dose: 100.0 mg/kg/injection, schedule: Q01DX009 (ip), vehicle: saline.
Where [5] appears, read: dose: 200.0 mg/kg/injection, schedule: Q01DX009 (ip), vehicle: saline.
The mark [6] stands for this setting: dose: 6.25 mg/kg/injection, schedule: Q01DX009 (ip), vehicle: saline with Tween-80.
[7] abbreviates: dose: 12.5 mg/kg/injection, schedule: Q01DX009 (ip), vehicle: saline with Tween-80.
Setting [8] is: dose: 50.0 mg/kg/injection, schedule: Q01DX005 (ip), vehicle: saline with Tween-80.
Setting [9] is: dose: 200.0 mg/kg/injection, schedule: Q01DX005 (ip), vehicle: saline with Tween-80.
Setting [10] is: dose: 50.0 mg/kg/injection, schedule: Q04DX003 (ip), vehicle: saline with Tween-80.
[11] abbreviates: dose: 50.0 mg/kg/injection, schedule: Q01DX009 (ip), vehicle: saline with Tween-80.
The mark [12] stands for this setting: dose: 100.0 mg/kg/injection, schedule: Q01DX009 (ip), vehicle: saline with Tween-80.
Where [13] appears, read: dose: 100.0 mg/kg/injection, schedule: Q04DX003 (ip), vehicle: saline with Tween-80.
Setting [14] is: dose: 200.0 mg/kg/injection, schedule: Q04DX003 (ip), vehicle: saline with Tween-80.

For 20 compounds, T/C results are on record in PubChem BioAssay AID330 (DTP/NCI, 2004).

Values joined by “and” are separate entries in the source; they are usually repeats but may differ in a detail not shown here. Equal values may be shown once. Toxic doses and inconclusive results are not listed.

Take `O=C([CH-]C(=O)C(F)(F)F)c1ccccc1.O=C([CH-]C(=O)C(F)(F)F)c1ccccc1.O=C([CH-]C(=O)C(F)(F)F)c1ccccc1.O=C([CH-]C(=O)C(F)(F)F)c1ccccc1.[Eu+3].c1ccncc1`: the T/C was 113 % of control under setting [1] and 104 % of control under setting [2].

`O=C(O)C(Cc1cccs1)NC(=O)C(F)(F)F` (stereo unspecified): the T/C is 99 % of control (dose: 50.0 mg/kg/injection, schedule: Q01DX009 (ip), vehicle: saline + alcohol); 93 % of control (dose: 100.0 mg/kg/injection, schedule: Q01DX009 (ip), vehicle: saline + alcohol); 92 % of control (dose: 200.0 mg/kg/injection, schedule: Q01DX009 (ip), vehicle: saline + alcohol).

Regarding `C/C=C/Cc1n[nH]c(=O)c2c(C)[nH]nc12`, the T/C is 105 % of control (dose: 25.0 mg/kg/injection, schedule: Q04DX002 (ip), vehicle: Klucel (hydroxypropylcellulose) (HPC)); 103 % of control (dose: 50.0 mg/kg/injection, schedule: Q04DX002 (ip), vehicle: Klucel (hydroxypropylcellulose) (HPC)); 104 % of control and 90 % of control (dose: 100.0 mg/kg/injection, schedule: Q04DX002 (ip), vehicle: Klucel (hydroxypropylcellulose) (HPC)).

Consider `BrCc1cn(Cc2ccccc2)nn1`, for which the T/C is 97 % of control under setting [3] and 97 % of control under setting [4].

With `O=C(OC(c1ccccc1)c1ccccc1)c1ccccc1`, the T/C is 99 % of control under setting [3], 108 % of control under setting [4] and 102 % of control under setting [5].

With `CCCC(=O)c1ccco1`, the T/C under setting [6] was 88 % of control; the T/C under setting [7] was 95 % of control; the T/C (dose: 25.0 mg/kg/injection, schedule: Q01DX009 (ip), vehicle: saline with Tween-80) was 95 % of control.

As for `CC(=O)OC1CCC2C3CCC4=C/C(=N/NC(=S)Nc5ccccc5)CCC4(C)C3CCC12C` (stereo unspecified), the T/C is 101 % of control (dose: 100.0 mg/kg/injection, schedule: Q01DX001 (ip), vehicle: saline); 101 % of control (dose: 200.0 mg/kg/injection, schedule: Q01DX001 (ip), vehicle: saline); 100 % of control (dose: 400.0 mg/kg/injection, schedule: Q01DX001 (ip), vehicle: saline).

With `C[C@@H]1CCC[C@@H](NC(=O)N(CCCl)N=O)C1`, the T/C is 176 % of control (dose: 18.75 mg/kg/injection, schedule: Q01DX009 (ip), vehicle: Klucel (hydroxypropylcellulose) (HPC)); 193 % of control (dose: 37.5 mg/kg/injection, schedule: Q01DX009 (ip), vehicle: Klucel (hydroxypropylcellulose) (HPC)); 249 % of control (dose: 75.0 mg/kg/injection, schedule: Q01DX009 (ip), vehicle: Klucel (hydroxypropylcellulose) (HPC)).

As to `O=C(/C(=N/Nc1ccccc1)C(=S)Nc1ccccc1)c1ccccc1`, the T/C runs as follows: (dose: 3.13 mg/kg/injection, schedule: Q01DX005 (ip), vehicle: saline with Tween-80) 99 % of control; (dose: 6.25 mg/kg/injection, schedule: Q01DX005 (ip), vehicle: saline with Tween-80) 95 % of control; (dose: 12.5 mg/kg/injection, schedule: Q01DX005 (ip), vehicle: saline with Tween-80) 91 % of control and 92 % of control; (dose: 25.0 mg/kg/injection, schedule: Q01DX005 (ip), vehicle: saline with Tween-80) 90 % of control; under setting [8], 89 % of control and 93 % of control; under setting [9], 90 % of control.

Turning to `NC(=S)N/N=C/c1ccc(-c2ccccc2)cc1`, the T/C reads like this: (dose: 12.5 mg/kg/injection, schedule: Q04DX003 (ip), vehicle: saline with Tween-80) 110 % of control; (dose: 25.0 mg/kg/injection, schedule: Q04DX003 (ip), vehicle: saline with Tween-80) 120 % of control; under setting [10], 100 % of control.

In the case of `CC(OC(=O)c1ccccc1C(=O)O)c1ccccc1` (stereo unspecified), the T/C was 91 % of control (dose: 12.5 mg/kg/injection, schedule: Q01DX009 (ip), vehicle: saline); 99 % of control and 101 % of control (dose: 25.0 mg/kg/injection, schedule: Q01DX009 (ip), vehicle: saline); 101 % of control and 108 % of control and 98 % of control under setting [3]; 104 % of control under setting [4]; 186 % of control under setting [5].

Regarding `COC1/C=C/OC2(C)Oc3c(C)c(O)c4c(c3C2=O)C(=O)C=C(NC(=O)/C(C)=C\C=C\C(C)C2OC(C)(C)OC(C2C)C(C)C(OC(C)=O)C1C)C4=O` (stereo unspecified), the T/C by setting is: under setting [11], 106 % of control; under setting [12], 113 % of control; (dose: 200.0 mg/kg/injection, schedule: Q01DX009 (ip), vehicle: saline with Tween-80) 117 % of control.

With `OC1CSc2ccccc2-n2cccc21` (stereo unspecified), the T/C by setting is: (dose: 60.0 mg/kg/injection, schedule: Q01DX005 (ip), vehicle: Klucel (hydroxypropylcellulose) (HPC)) 99 % of control; (dose: 120.0 mg/kg/injection, schedule: Q01DX005 (ip), vehicle: Klucel (hydroxypropylcellulose) (HPC)) 106 % of control; (dose: 240.0 mg/kg/injection, schedule: Q01DX005 (ip), vehicle: Klucel (hydroxypropylcellulose) (HPC)) 105 % of control.

For the compound `CCCCCCCCCCCCCCCCCCCC[N+]1(CC)CCOCC1`, the T/C under setting [13] is 98 % of control; the T/C under setting [14] was 99 % of control; the T/C (dose: 400.0 mg/kg/injection, schedule: Q04DX003 (ip), vehicle: saline with Tween-80) is 96 % of control.

For the compound `COc1nc(N(CCO)c2ccccc2)nc(N(CCO)c2ccccc2)n1`, the T/C by setting is: under setting [8], 96 % of control; (dose: 100.0 mg/kg/injection, schedule: Q01DX005 (ip), vehicle: saline with Tween-80) 93 % of control; under setting [9], 92 % of control.

Take `C=C[Si]12OCCN(CCO1)CCO2`: the T/C (dose: 12.5 mg/kg/injection, schedule: Q01DX009 (ip), vehicle: Klucel (hydroxypropylcellulose) (HPC)) is 119 % of control; the T/C (dose: 25.0 mg/kg/injection, schedule: Q01DX009 (ip), vehicle: Klucel (hydroxypropylcellulose) (HPC)) is 112 % of control; the T/C under setting [1] is 114 % of control; the T/C under setting [2] is 109 % of control and 98 % of control; the T/C (dose: 200.0 mg/kg/injection, schedule: Q01DX009 (ip), vehicle: Klucel (hydroxypropylcellulose) (HPC)) was 102 % of control; the T/C (dose: 400.0 mg/kg/injection, schedule: Q01DX009 (ip), vehicle: Klucel (hydroxypropylcellulose) (HPC)) was 100 % of control.

Regarding `O=C(c1ccccc1)C(N=Nc1ccccc1)(c1ccccc1)c1ccccc1`, the T/C is, setting by setting: (dose: 60.0 mg/kg/injection, schedule: Q01DX005 (ip), vehicle: saline with Tween-80) 101 % of control; (dose: 120.0 mg/kg/injection, schedule: Q01DX005 (ip), vehicle: saline with Tween-80) 118 % of control; (dose: 240.0 mg/kg/injection, schedule: Q01DX005 (ip), vehicle: saline with Tween-80) 100 % of control.

Turning to `C[n+]1ccc(Nc2ccc(NC(=O)c3ccc(Nc4cc[n+](C)c5ccc([N+](=O)[O-])cc45)cc3)cc2)cc1`, the T/C is 164 % of control (dose: 2.0 mg/kg/injection, schedule: Q01DX009 (ip), vehicle: saline); 158 % of control and 178 % of control (dose: 4.0 mg/kg/injection, schedule: Q01DX009 (ip), vehicle: saline); 177 % of control and 195 % of control (dose: 8.0 mg/kg/injection, schedule: Q01DX009 (ip), vehicle: saline); 226 % of control and 257 % of control (dose: 16.0 mg/kg/injection, schedule: Q01DX009 (ip), vehicle: saline); 281 % of control and 288 % of control (dose: 32.0 mg/kg/injection, schedule: Q01DX009 (ip), vehicle: saline); 121 % of control (dose: 64.0 mg/kg/injection, schedule: Q01DX009 (ip), vehicle: saline).

With `CC1(C)COC(CC2CCCCC2)=N1`, the T/C under setting [11] was 104 % of control; the T/C under setting [10] was 100 % of control; the T/C under setting [12] was 100 % of control; the T/C under setting [13] is 104 % of control; the T/C under setting [14] is 90 % of control.

Consider `O=C1C(=C(C(F)(F)F)C(F)(F)F)C2CCC1C2` (stereo unspecified), for which the T/C (dose: 3.13 mg/kg/injection, schedule: Q01DX009 (ip), vehicle: saline with Tween-80) was 100 % of control; the T/C under setting [6] was 110 % of control; the T/C under setting [7] was 100 % of control.
